Tests used:
[1] = BBB permeability: mass spectrometry of CSF of treated wild-type mice; assay type: in vivo, mouse; conditions: 50 mg/kg/day in diet, 1 week
Protocol: FIGS. 14. (A), (B) and (C) Compound 9 is able to cross the BBB. Wild-type mice (n=5) were fed a diet containing 50 mg/kg/day of compound 9 for one week and then sacrificed. Control animals (n=5) received placebo-containing pellets. CSF was collected and analyzed by mass spectrometry (MS) to detect compound 9. The pick corresponding to compound 9 is indicated. […] Because of the strong hydrophobic properties of the compound, elution was in 100% methanol. Under these conditions most of compound 9 was found protonated and complexed as follows: 1 molecule of compound 9 (protonated):3 molecules of water (1 protonated):1 molecule of methanol. The total mass of the eluted complex was 369.4. This complex is only generated when adding methanol during the elution process for the MS. Compound 9 was never observed in control animals.
To assess BBB permeability properties, a group of 5 wild-type mice received 50 mg/kg/day of compound 9 for 1 week. Animals were then sacrificed and CSF collected for biochemical analysis. Treatment was limited to 1 week because this length of time is usually sufficient to reach equilibrium in biological fluids (Ito, et al., 1998; Singh, 2006; Houston and Galetin, 2008). Concentration and duration of the treatment was based on previous studies with drug-like compounds having similar mass and solubility properties (Ito, et al., 1998; Singh, 2006; Houston and Galetin, 2008).

ATase1 and ATase2 = test: Western blot of ATase1 and ATase2 levels in CHO cells over-expressing transgenic ATase1 or ATase2; assay type: cell-based, hamster; conditions: 10 μM, 48 hours
Protocol: FIG. 4. Compound 9 causes degradation of the ATases. (A) H4 cells were treated with the indicated compounds (10 μM) for 48 hours prior to Western blot assessment of BACE1 and ATase1/ATase2 levels in total cell lysates. (B, D and E) Quantification of changes are expressed as percent of control (no treatment) and are the average (n=3)±S.D.*, P<0.05; **, P<0.005; ^#, P<0.0005. (C) ELISA determination of secreted Aβ in the conditioned media of the experiment described in (A). Results are expressed as percent of control (no treatment) and are the average (n=3)±S.D.*, P<0.05; **, P<0.005. (F) CHO cells over-expressing either ATase1 or ATase2 were treated with compound 9 (10 μM) for 48 hours prior to Western blot assessment of ATase1 and ATase2 levels in total cell lysates.
Western blotting was performed on a 4-12% Bis-Tris SDS-PAGE system (NuPAGE; Invitrogen, Carlsbad, Calif., USA) as described previously (Costantini et al., 2006; Jonas et al., 2008; Jonas et al., 2010; Ko and Puglielli, 2007; Ko and Puglielli, 2009; Pehar et al., 2010). […]

[2] = tested on: histone acetyltransferase p300/CBP; test: In vitro activity of histone acetyltransferase p300/CBP; assay type: biochemical; conditions: data not shown
Aβ [3] = test: ELISA determination of secreted Aβ in conditioned media of H4 cells; assay type: cell-based, human; conditions: 10 μM, 48 hours
Protocol: For Aβ determinations in the conditioned media, H4 cells were plated in 6-well Petri dishes. When 80-90% confluent, cells were washed in PBS and incubated in 1 ml of fresh medium for 48 hr. Secreted Aβ was determined by standard sandwich ELISA as described before (Costantini et al., 2007; Costantini et al., 2006; Jonas et al., 2008; Jonas et al., 2010; Ko and Puglielli, 2009; Pehar et al., 2010). For each sample, the levels of Aβ40, Aβ42, and Aβtotal were quantified as triplicate based upon standard curves run (on every ELISA plate) and then expressed as pmol Aβ/mg of protein. Aβ42 was constantly found to be ˜25% of total Aβ values.

Aβ [4] = test: Aβ levels in brain homogenates (cortex) of APP695/swe mice; assay type: in vivo, mouse
Protocol: (§1) A group of non-transgenic and APP695/swe mice were fed a diet containing 50 mg/kg/day of compound 9. Treatment started at weaning (˜6 weeks of age) and lasted 4 months. At the end of treatment, the animals were sacrificed and the electrophysiological properties of hippocampal brain slices (as induced by theta burst stimulation to the Schaffer collaterals) were studied.
Note that at this age, the animals have not yet developed plaques. As expected from our previous results in cellular models (Ko and Puglielli, 2009), no effect on the Aβ42/Aβtotal ratio was observed (data not shown). In fact compound 9 affects BACE1 levels and, as such, impacts on the generation of all Aβ species.

C99 = test: Western blot assessment of C99 levels in H4 cell lysates; assay type: cell-based, human; conditions: H4 cells, 48 hours
Protocol: FIG. 7. Compound 9 and 19 decrease levels and activity of BACE1. H4 cells were treated with either compound 9 or 19 for 48 hours prior to Western blot assessment of BACE1 and C99 levels in cell lysates. C99 is the immediate product of BACE1-mediated cleavage of APP.
Western blotting was performed on a 4-12% Bis-Tris SDS-PAGE system (NuPAGE; Invitrogen, Carlsbad, Calif., USA) as described previously (Costantini et al., 2006; Jonas et al., 2008; Jonas et al., 2010; Ko and Puglielli, 2007; Ko and Puglielli, 2009; Pehar et al., 2010). The following antibodies were used in this study: anti-acetylated lysine (monoclonal; cat. no. ab409; Abcam, Cambridge, Mass., USA); anti-BACE1 (polyclonal; cat. no. ab2077; Abcam); anti-Myc (monoclonal; cat. no. sc-40; santa cruz, Santa Cruz, Calif., USA); anti-ATases/NAT8 (polyclonal; cat. no. AP4957c; Abgent, San Diego, Calif., USA); anti-actin (monoclonal; cat. no. A1978; Sigma, St Louis, Mo., USA); anti-C99 (monoclonal; cat. no. M066-3; MBL, Woburn, Mass., USA); anti-acetylated H3 (polyclonal; cat. no. 06-599, Millipore, Billerica, Mass.); anti-acetylated H4 (polyclonal; cat. no. 06-866, Millipore, Billerica, Mass.); anti-αPCNA (polyclonal; cat. no. AP2835b, Abgent, San Diego, Calif., USA).

BACE1 = test: Western blot of BACE1 in brain tissue homogenates of APP695/swe mice; assay type: in vivo, mouse; conditions: 50 mg/kg/day in diet, 4 months
Protocol: FIG. 16. Compound 9 decreases levels of BACE1 in brain tissue homogenates of APP695/swe transgenic mice. Compound 9 was administered to select transgenic mice for four months, beginning at weaning, with additional transgenic mice used as controls. Brain tissue homogenates were obtained from sacrificed transgenic mice and Western blot assessment of BACE1 in brain tissue homogenates was performed.
as §1

detection in CSF (crosses blood brain barrier) [1]: detect compound 9 in all treated animals | inhibition of in vitro activity of p300/CBP [2]: neither compound inhibited
SMILES: O=c1c(Cl)c2oc3ccccc3nc-2c2ccccc12 [Compound 9]
levels of transgenic ATase1 and ATase2 (ATase1 and ATase2): significantly decreases | levels of Aβ in the conditioned media / generation of Aβ (Aβ [3]): decreased levels of Aβ | reduction in soluble Aβ in the brain homogenates (Aβ [4]; 50 mg/kg/day in diet, 4 months): ~50% | Aβ (Aβ [4]; brain homogenates (cortex), 50 mg/kg/day in diet, 4 months): 178 ± 14 ng/gr | Aβ42/Aβtotal ratio (Aβ [4]; data not shown): no effect | cellular levels of C99 (C99): decreased cellular levels of C99 | BACE1 levels in brain homogenates (BACE1): marked reduction

Source: US9522124B2, “Methods for treating Alzheimer's disease” (Wisconsin Alumni Research Foundation, priority 2011, dated 2016)
